According to patent publication US7390806B2, “Antibiotics containing borinic acid complexes and methods of use” (Anacor Pharmaceuticals, Inc., priority 2002, dated 2008):

Key:
Conditions in all cases: Table 1
S. aureus ATCC 29213 = test: MIC determination, S. aureus ATCC 29213; assay type: cell-based, Staphylococcus aureus
[1] = test system: S. epidermidis ATCC 12228; test: MIC determination, S. epidermidis ATCC 12228; assay type: cell-based, Staphylococcus epidermidis
S. pneumoniae ATCC 6301 = test: MIC determination, S. pneumoniae ATCC 6301; assay type: cell-based, Streptococcus pneumoniae
E. faecalis ATCC 29212 = test: MIC determination, E. faecalis ATCC 29212; assay type: cell-based, Enterococcus faecalis
E. faecium CT-26 = test: MIC determination, E. faecium CT-26; assay type: cell-based, Enterococcus faecium
[2] = test system: M. catarrhalis ATCC 25238; test: MIC determination, M. catarrhalis ATCC 25238; assay type: cell-based

Row | Molecule | MIC S. aureus ATCC 29213 (S. aureus ATCC 29213) | MIC S. epidermidis ATCC 12228 [1] | MIC S. pneumoniae ATCC 6301 (S. pneumoniae ATCC 6301) | MIC E. faecalis ATCC 29212 (E. faecalis ATCC 29212) | MIC E. faecium CT-26 (E. faecium CT-26) | MIC M. catarrhalis ATCC 25238 [2]
1 | Oc1cccc2cccnc12 [Compound 78, 8-hydroxyquinoline] | 2 micrograms per ml | 1 micrograms per ml | 1 micrograms per ml | 8 micrograms per ml | 2 micrograms per ml | 2 micrograms per ml
2 | Bis(ethynyl)borinic acid 8-Hydroxyquinoline [Compound 44] | 1 micrograms per ml | 1 micrograms per ml | 1 micrograms per ml | 16 micrograms per ml | 2 micrograms per ml | 0.25 micrograms per ml
3 | Oc1cccc2cccnc12 [Compound 46, 8-hydroxyquinoline] | 1 micrograms per ml | 1 micrograms per ml | 1 micrograms per ml | 4 micrograms per ml | 1 micrograms per ml | 1 micrograms per ml
4 | Oc1cccc2cccnc12 [Compound 98, 8-hydroxyquinoline] | 2 micrograms per ml | 1 micrograms per ml | 1 micrograms per ml | 8 micrograms per ml | 4 micrograms per ml | 1 micrograms per ml
5 | Oc1ccc(F)c2cccnc12 [Compound 34] | 1 micrograms per ml | 2 micrograms per ml | 2 micrograms per ml | 8 micrograms per ml | 4 micrograms per ml | 1 micrograms per ml
6 | Oc1cccc2cccnc12 [Compound 89, 8-hydroxyquinoline] | 2 micrograms per ml | 1 micrograms per ml | 1 micrograms per ml | 8 micrograms per ml | 2 micrograms per ml | 2 micrograms per ml
7 | Oc1cccc2cccnc12 [Compound 61, 8-hydroxyquinoline] | 2 micrograms per ml | 1 micrograms per ml | 1 micrograms per ml | 16 micrograms per ml | 2 micrograms per ml | 2 micrograms per ml
8 | Oc1cccc2cccnc12 [Compound 33, 8-hydroxyquinoline] | 1 micrograms per ml | 1 micrograms per ml | 1 micrograms per ml | 8 micrograms per ml | 2 micrograms per ml | 2 micrograms per ml
9 | Oc1cccc2cccnc12 [Compound 28, 8-hydroxyquinoline] | 0.5 micrograms per ml | 1 micrograms per ml | 2 micrograms per ml | 4 micrograms per ml | 2 micrograms per ml | 1 micrograms per ml
10 | Oc1cccc2cccnc12 [Compound 29, 8-hydroxyquinoline] | 0.5 micrograms per ml | 1 micrograms per ml | 2 micrograms per ml | 8 micrograms per ml | 2 micrograms per ml | 0.5 micrograms per ml
11 | Oc1cccc2cccnc12 [Compound 88, 8-hydroxyquinoline] | 2 micrograms per ml | 2 micrograms per ml | 2 micrograms per ml | 8 micrograms per ml | 2 micrograms per ml | 2 micrograms per ml
